Values belong to the compound of their own block, whether it stands above or below them.
Experiments:
[1] = tested on: tumor cells that overexpress BCL-2; conditions: nonclinical studies; cited from earlier work
[2] = stability of the crystalline form over time; type: physicochemical
Procedure: In an embodiment, drying crystalline Form RT2 of Venetoclax may be carried out at temperatures and times sufficient to achieve desired quality of product. Drying may be carried out at about 30° C. or above at which crystalline form RT2 is stable and for any time period required for obtaining a desired quality, such as from about 5 minutes to 10 hours or longer. Crystalline form RT2 is stable for 3 months period or longer.

[3] = stability of the solid form under mechanical stress (grinding and milling); type: physicochemical
Excerpt: (§1) The present application provides a stable amorphous form of Venetoclax devoid of the problems indicated in the prior art and suitable for powder handling and downstream processes.

[4] = stability of the solid form under hygroscopic conditions (higher relative humidity); type: physicochemical; conditions: higher relative humidity conditions of more than 60% RH
Excerpt: as §1

Compound: CC1(C)CCC(CN2CCN(c3ccc(C(=O)NS(=O)(=O)c4ccc(NCC5CCOCC5)c([N+](=O)[O-])c4)c(Oc4cnc5[nH]ccc5c4)c3)CC2)=C(c2ccc(Cl)cc2)C1 [Venetoclax]
cytotoxic activity [1]: demonstrated cytotoxic activity

period for which the crystalline form is stable [2]: ≥ 3 months
Compound: CC1(C)CCC(CN2CCN(c3ccc(C(=O)NS(=O)(=O)c4ccc(NCC5CCOCC5)c([N+](=O)[O-])c4)c(Oc4cnc5[nH]ccc5c4)c3)CC2)=C(c2ccc(Cl)cc2)C1 [Crystalline form RT2]

stability under mechanical stress [3]: highly stable | stability under hygroscopic conditions [4]: stable
Compound: CC1(C)CCC(CN2CCN(c3ccc(C(=O)NS(=O)(=O)c4ccc(NCC5CCOCC5)c([N+](=O)[O-])c4)c(Oc4cnc5[nH]ccc5c4)c3)CC2)=C(c2ccc(Cl)cc2)C1 [Amorphous form of Venetoclax]

From patent publication US20190185471A1, “SOLID FORMS OF VENETOCLAX AND PROCESSES FOR THE PREPARATION OF VENETOCLAX” (DR. REDDY'S LABORATORIES LIMITED, priority 2016, published 2019)
